Laboratory results: patent publication US10604528B2, “Galunisertib crystalline form, preparation method thereof and use thereof” (Crystal Pharmaceutical (Suzhou) Co., Ltd., priority 2016, dated 2020)
Values after ≈ are worked out from the molar mass of the structure shown. “Also recorded” adds a separate entry of the source. Read-outs that look alike come from different tables or passages of the source.

Columns and labels:
Type in all cases: physicochemical
[1] = Hygroscopicity by dynamic vapor sorption (DVS); conditions: for Hygroscopicity class / Weight gain at 80% RH: 80% RH; for Hygroscopicity class: Chinese Pharmacopoeia 2015 definition; for Weight gain at 80% RH / Weight gain at 95% RH: DVS
Procedure: Dynamic vapor sorption (DVS) was applied to test hygroscopicity of Form A and Form 1 disclosed in WO2007018818A1 with about 10 mg of samples.
Description and definition of hygroscopicity (Chinese Pharmacopoeia 2015 edition, 9103 General drug hygroscopic test guidelines, test at 25° C.±1° C., 80% RH).

[2] = Kinetic solubility in FaSSIF, FeSSIF and water (HPLC)
Procedure: Form A of the present disclosure and Form 1 of the prior art were suspended into FaSSIF (Fasted state simulated intestinal fluids, pH=6.5), FeSSIF (Fed state simulated intestinal fluids, pH=5.0), SGF (Simulated gastric fluids, pH=1.8) and water to get saturated solutions. After equilibrated for 1 h, 4 h and 24 h, concentrations of the saturated solutions were measured by HPLC.

[3] = Particle size distribution (laser particle size analyzer, wet process)
Procedure: The particle size distribution test in the present disclosure is acquired by the S3500 laser particle size analyzer of Microtrac. Microtrac S3500 is equipped with the SDC (Sample Delivery Controller). The test is carried out by wet process, and the dispersion medium is Isopar G. The parameters are as follow: […]

[4] = Long-term and accelerated solid-state stability (XRPD)
Procedure: Solid samples of Form A and Form 1 were stored under different conditions of 25° C./60% RH, 40° C./75% RH. 60° C./75% RH and 80° C.

[5] = Mechanical stability (manual grinding, XRPD); conditions: ground manually for 5 minutes in mortar
Procedure: Solid sample of Form A of the present disclosure was ground manually for 5 minutes in mortar. The XRPD pattern overlay of the solids before and after grinding is substantially as depicted in FIG. 9 (top: XRPD pattern before grinding, bottom: XRPD pattern after grinding).

| Structure (SMILES) | Hygroscopicity class [1] | Weight gain at 80% RH [1] [%] | Weight gain at 95% RH [1] [%] | solubility ([2]; FaSSIF pH=6.5, 1 h) [µg/mL] | solubility ([2]; FaSSIF pH=6.5, 4 h) [µg/mL] | solubility ([2]; FaSSIF pH=6.5, 24 h) [µg/mL] | solubility ([2]; FeSSIF pH=5.0, 1 h) [µg/mL] | solubility ([2]; FeSSIF pH=5.0, 4 h) [µg/mL] | solubility ([2]; FeSSIF pH=5.0, 24 h) [µg/mL] | solubility ([2]; H2O, 1 h) [µg/mL] | solubility ([2]; H2O, 4 h) [µg/mL] | solubility ([2]; H2O, 24 h) [µg/mL] | D10 ([3]; ultrasonication time 0 s) [μm] | D50 ([3]; ultrasonication time 0 s) [μm] | D90 ([3]; ultrasonication time 0 s) [μm] | MV (average particle size calculated by volume) ([3]; ultrasonication time 0 s) [μm] | D10 ([3]; ultrasonication time 30 s) [μm] | D50 ([3]; ultrasonication time 30 s) [μm] | D90 ([3]; ultrasonication time 30 s) [μm] | MV (average particle size calculated by volume) ([3]; ultrasonication time 30 s) [μm] | other results |
| --- | --- | --- | --- | --- | --- | --- | --- | --- | --- | --- | --- | --- | --- | --- | --- | --- | --- | --- | --- | --- | --- |
| Cc1cccc(-c2nn3c(c2-c2ccnc4ccc(C(N)=O)cc24)CCC3)n1 [Form 1, 2-(6-methyl-pyridin-2-yl)-3-[6-amido-quinolin-4-yl)-5,6-dihydro-4H-pyrrolo[1,2-b]pyrazole, reference compound] | slightly hygroscopic | 0.33 | 0.53 | 58 (≈ 157 µM) | 51 (≈ 138 µM) | 52 (≈ 141 µM) | 120 (≈ 325 µM) | 110 (≈ 298 µM) | 120 (≈ 325 µM) | 56 (≈ 152 µM) | 55 (≈ 149 µM) | 55 (≈ 149 µM) | 33.41 | 56.97 | 95.11 | 62.25 | 24.89 | 42.56 | 68.40 | 45.75 | solubility ([2]; FaSSIF and water, pH 6.5, fassif, thermodynamic from solid, in both FaSSIF and H2O, all sampling points, read-out: solubility): < 60 µg/mL; D10 ([3]; ultrasonication time 60 s): 22.40 μm; D50 ([3]; ultrasonication time 60 s): 37.88 μm; D90 ([3]; ultrasonication time 60 s): 59.87 μm; MV (average particle size calculated by volume) ([3]; ultrasonication time 60 s): 40.41 μm; D10 ([3]; ultrasonication time 90 s): 20.94 μm; D50 ([3]; ultrasonication time 90 s): 35.58 μm; D90 ([3]; ultrasonication time 90 s): 55.95 μm; MV (average particle size calculated by volume) ([3]; ultrasonication time 90 s): 37.83 μm; Solid form after storage ([4]; 25° C./60% RH, 12 months): Form 1; Solid form after storage ([4]; 40° C./75% RH, 12 months): Form 1; Solid form after storage ([4]; 60° C./75% RH, 2 weeks): Form 1; Solid form after storage ([4]; 80° C., 2 weeks): partially converts to Form A; also recorded: Form 1 + Form A |
| Cc1cccc(-c2nn3c(c2-c2ccnc4ccc(C(N)=O)cc24)CCC3)n1 [Form A, 2-(6-methyl-pyridin-2-yl)-3-[6-amido-quinolin-4-yl)-5,6-dihydro-4H-pyrrolo[1,2-b]pyrazole] | non-hygroscopic or almost non-hygroscopic | 0.15 | 0.23 | 230 (≈ 623 µM) | 270 (≈ 731 µM) | 520 (≈ 1410 µM) | 480 (≈ 1300 µM) | 820 (≈ 2220 µM) | 640 (≈ 1730 µM) | 170 (≈ 460 µM) | 250 (≈ 677 µM) | 310 (≈ 839 µM) | 50.28 | 170.3 | 356.4 | 190.8 | 34.37 | 106.2 | 210.5 | 116.1 | Solid Form after DVS test ([1]; XRPD after DVS test): does not change after DVS test; also recorded: Form A (no change); solubility relative to Form 1 ([2]; FaSSIF pH=6.5, 24 h): ten times higher than that of Form 1; D10 ([3]; ultrasonication time 60 s): 29.37 μm; D50 ([3]; ultrasonication time 60 s): 92.81 μm; D90 ([3]; ultrasonication time 60 s): 192.2 μm; MV (average particle size calculated by volume) ([3]; ultrasonication time 60 s): 104.1 μm; D10 ([3]; ultrasonication time 90 s): 26.40 μm; D50 ([3]; ultrasonication time 90 s): 83.69 μm; D90 ([3]; ultrasonication time 90 s): 167.2 μm; MV (average particle size calculated by volume) ([3]; ultrasonication time 90 s): 91.94 μm; Crystalline form (XRPD pattern) after grinding [5]: doesn't change significantly; also recorded: No form change; Time the form keeps stable ([4]; 25° C./60% RH and 40° C./75% RH): at least 12 months; Solid form after storage ([4]; 25° C./60% RH, 12 months): Form A; Solid form after storage ([4]; 40° C./75% RH, 12 months): No form change; also recorded: Form A; Time the form keeps stable ([4]; 60° C./75% RH and 80° C.): at least 2 weeks; Solid form after storage ([4]; 60° C./75% RH, 2 weeks): Form A; Solid form after storage ([4]; 80° C., 2 weeks): Form A |
